Drawing on patent publication US20250214977A1, “STAT6 INHIBITORS AND USES THEREOF” (Kymera Therapeutics, Inc., priority 2024, published 2025), this text covers IC50 for 52 compounds.

This experiment has as its system Phosphorylation of STAT6 in human A549 cells. The experiment is described as follows: Phosphorylated STAT6 (pSTAT6) flow cytometry assay in human A549 cells. It is filed as cell-based. To be noted: read-out: STAT6 IL4 pSTAT6 assay in A549 cells: Average IC50. An excerpt:
Example 3. Phosphorylated STAT6 (pSTAT6) Flow Cytometry Assay in Human A549 Cells
Phosphorylation of STAT6 in human A549 cells was quantitatively measured using flow cytometry technology.

Turning to `CCc1ccncc1-c1cc(C2=CCCN(C(=O)CCn3ccnn3)C2)c(F)c2[nH]c(C(=O)N3CCN(c4ncc(C(F)(F)F)cc4OC)CC3)cc12` [Example I-1040], the IC50 is < 0.1 µM. With `COc1cc(F)cnc1N1CCN(C(=O)c2cc3c(C4=CCCC4)cc(C4=CCCN(C(=O)CCn5ccnn5)C4)c(F)c3[nH]2)CC1` [Example I-1134], the IC50 is < 0.1 µM. On to `CCCN1CCN(C(=O)c2cc3c(-c4ccccc4OC)cc(C4=CCCN(C(=O)CCn5ccnn5)C4)c(F)c3[nH]2)C[C@@H]1C` [Example I-997], for which the IC50 was < 0.1 µM.

Take `COc1ccccc1-c1cc(C2=CCCN(C(=O)CCn3ccnn3)C2)c(F)c2[nH]c(C(=O)N3CCN(c4cc(C#N)ccn4)CC3)cc12` [Example I-875]: the IC50 was < 0.1 µM. In the case of `CN(C)C(=O)c1cc2ccc([C@H]3CCCN(C(=O)CCn4ccnn4)C3)cc2[nH]1` [Example I-1189], the IC50 fell in the range of 0.1 to 1 µM.

Take `COc1cc(F)cnc1N1CCN(C(=O)c2cc3c(C(F)F)cc(C4=CCCN(C(=O)CCn5ccnn5)C4)c(F)c3[nH]2)CC1` [Example I-532]: the IC50 was < 0.1 µM. The result for `COc1ccccc1-c1cc(C2=CCCN(C(=O)CCn3ccnn3)C2)c(F)c2[nH]c(C(=O)N3CCC(c4ccccc4OC)CC3)cc12` [Example I-422] reads < 0.1 µM; that for `COc1ccccc1-c1cc(C2=CCCN(C(=O)CCn3ccnn3)C2)c(F)c2[nH]c(C(=O)N3CCN(c4cccc(C(F)(F)F)n4)CC3)cc12` [Example I-937], 0.1 to 1 µM; that for `COc1cc(F)cnc1N1CCN(C(=O)c2cc3c(-c4ccc5nn(C)cc5c4)cc(C4=CCCN(C(=O)CCn5ccnn5)C4)c(F)c3[nH]2)CC1` [Example I-624], < 0.1 µM.

Regarding `COc1ccccc1-c1cc(C2=CCCN(C(=O)CCn3ccnn3)C2)c(F)c2[nH]c(C(=O)N3CCN(CC4(C)COC4)CC3)cc12` [Example I-1183], the IC50 is < 0.1 µM. Regarding `CCCOc1ncccc1-c1cc(C2=CCCN(C(=O)CCn3ccnn3)C2)c(F)c2[nH]c(C(=O)N3CCN(c4ncc(F)cc4OC)CC3)cc12` [Example I-652], the IC50 was < 0.1 µM.

Take `CCc1ccccc1-c1cc(C2=CCCN(C(=O)CCn3ccnn3)C2)c(F)c2[nH]c(C(=O)N3Cc4cnn(C)c4C3)cc12` [Example I-700]: the IC50 fell in the range of 10 to 100 µM. The result for `COc1ccccc1N1CCN(C(=O)c2cc3c(-c4cccnc4OC)cc(C4=CCCN(C(=O)CCn5ccnn5)C4)c(F)c3[nH]2)CC1` [Example I-599] reads < 0.1 µM; that for `COc1cc(F)cnc1N1CCN(C(=O)c2cc3c(C4CCCCN4C)cc(C4=CCCN(C(=O)CCn5ccnn5)C4)c(F)c3[nH]2)CC1` (stereo not shown) [Example I-780], < 0.1 µM.

Consider `COc1ccccc1-c1cc(C2=CCCN(C(=O)CCn3ccnn3)C2)c(F)c2[nH]c(C(=O)N3CCN(c4c(C)ccn5nccc45)CC3)cc12` [Example I-1019], for which the half-maximal inhibitory concentration (IC50) was < 0.1 µM. The result for `COc1cncc(C)c1-c1cc(C2=CCCN(C(=O)CCn3ccnn3)C2)cc2cc(C(=O)N(C)C)oc12` [Example I-1090] reads < 0.1 µM. Regarding `COc1ccccc1-c1cc(C(=O)N(C)C)cc2cc(C3=CCCN(C(=O)CCn4ccnn4)C3)n(CC3CC3)c12` [Example I-899], the IC50 was < 0.1 µM.

With `COc1cc(F)cnc1N1CCN(C(=O)c2cc3c(-c4ccccc4C4CC4)cc(C4=CCCN(C(=O)CCn5ccnn5)C4)c(F)c3[nH]2)CC1` [Example I-645], the IC50 is < 0.1 µM.

Regarding `COc1cc(F)cnc1N1CCN(C(=O)c2cc3c(-c4ccc(C(O)C(F)(F)F)cc4)cc(C4=CCCN(C(=O)CCn5ccnn5)C4)c(F)c3[nH]2)CC1` (stereo not shown) [Example I-1145], the IC50 is < 0.1 µM. Take `CNc1cccnc1N1CCN(C(=O)c2cc3c(-c4ccccc4OC)cc(C4=CCCN(C(=O)CCn5ccnn5)C4)c(F)c3[nH]2)CC1` [Example I-439]: the IC50 was < 0.1 µM.

In the case of `COc1ccccc1-c1cc(C2=CCCN(C(=O)CCn3ccnn3)C2)c(F)c2[nH]c(C(=O)N3CCC4(CC3)OCCO4)cc12` [Example I-1000], the half-maximal inhibitory concentration (IC50) was < 0.1 µM. On to `COc1cc(F)cnc1N1CCN(C(=O)c2cc3c(-c4ccc(C(F)(F)F)cc4CO)cc(C4=CCCN(C(=O)CCn5ccnn5)C4)c(F)c3[nH]2)CC1` [Example I-1167], for which the IC50 is < 0.1 µM. On to `COc1cccnc1N1CCN(C(=O)c2cc3c(-n4nc(C)cc4C)cc(C4=CCCN(C(=O)CCn5ccnn5)C4)c(F)c3[nH]2)CC1` [Example I-586], for which the IC50 is < 0.1 µM. With `CCc1nc(C)ccc1-c1cc(C(=O)N2CCN(c3ncc(F)cc3OC)CC2)cc2cc(C3=CCCN(C(=O)CCn4ccnn4)C3)n(CC(C)C)c12` [Example I-524] the figure was < 0.1 µM; with `COc1cccnc1N1CCN(C(=O)c2cc3ccc(C4=CCCN(C(C)=O)C4)c(F)c3[nH]2)CC1` [Example I-902], 1 to 10 µM. `CCc1nc(C)ccc1-c1cc(C(=O)N2CCN(c3ncc(F)cc3OC)CC2)cc2cc(C3=CCCN(C(=O)CCC(=O)O)C3)n(CC3CC3)c12` [Example I-527]: the IC50 was < 0.1 µM. The result for `COc1ccccc1-c1cc(C2=CCCN(C(=O)CCn3ccnn3)C2)c(F)c2[nH]c(C(=O)N3CCC(c4cccnc4C)CC3)cc12` [Example I-1002] reads < 0.1 µM; that for `COc1ccccc1-c1cc(C2=CCCN(C(=O)CCn3ccnn3)C2)c(F)c2[nH]c(C(=O)N3CCN(c4c(C)nn(C)c4C#N)CC3)cc12` [Example I-775], < 0.1 µM. Turning to `CCc1cc(C)ncc1-c1cc(C2=CCCN(C(=O)CCn3ccnn3)C2)c(F)c2[nH]c(C(=O)N3CCN(c4ccc(F)cc4OC)CC3)cc12` [Example I-739], the IC50 was < 0.1 µM. On to `COc1ccccc1-c1cc(C2=CCCN(C(=O)CCn3ccnn3)C2)c(F)c2[nH]c(C(=O)N3CCN(Cc4cccn(C)c4=O)CC3)cc12` [Example I-1198], for which the IC50 was < 0.1 µM. Turning to `COc1ccncc1-c1cc(C2=CCCN(C(=O)CCn3ccnn3)C2)c(F)c2[nH]c(C(=O)N3CC=C(c4ncc(F)cc4OC)CC3)cc12` [Example I-442], the IC50 was < 0.1 µM. As to `COc1ccccc1-c1cc(C2=CCCN(C(=O)CCn3ccnn3)C2)c(F)c2[nH]c(C(=O)N3CCc4cccc(OC)c4C3)cc12` [Example I-901], the IC50 was < 0.1 µM. On to `CCc1ccncc1-c1cc(C2=CCCN(C(=O)CCn3ccnn3)C2)c(F)c2[nH]c(C(=O)N3CCN(c4cccc(OC)n4)CC3)cc12` [Example I-480], for which the IC50 is < 0.1 µM. For the compound `CN(C(=O)c1cc2c(-c3cncnc3C3CC3)cc(C3=CCCN(C(=O)CCn4ccnn4)C3)c(F)c2[nH]1)C1CC1` [Example I-1043], the half-inhibitory concentration (IC50) was > 100 µM. For the compound `O=C(CCn1ccnn1)N1CCC=C(c2cc(-c3ccccc3)c3cc(C(=O)N4CCN(c5ncccc5OC5CC5)CC4)[nH]c3c2F)C1` [Example I-938], the IC50 is < 0.1 µM. For the compound “Methyl 5-(3-(5-(2-(dimethylcarbamoyl)benzofuran-5-yl)-1,2,3,6-tetrahydropyridine-1-carbonyl)-2-formyl-1,2,3,4-tetrahydroisoquinolin-5-yl)pent-4-ynoate [Example I-802]”, the half-maximal inhibitory concentration (IC50) was < 0.1 µM.

Turning to `COc1ccccc1-c1cc(C2=CCCN(C(=O)CCn3ccnn3)C2)c(F)c2[nH]c(C(=O)N3CCN(c4ncc(C#N)cc4OC)CC3)cc12` [Example I-940], the half-maximal inhibitory concentration (IC50) was < 0.1 µM.

For `COc1ccccc1-c1cc(C2=CCCN(C(=O)CCn3ccnn3)C2)c(F)c2[nH]c(C(=O)N3CCN(c4ccc[nH]c4=O)CC3)cc12` [Example I-1003], the IC50 is < 0.1 µM. In the case of `COc1cccc(N2CCN(C(=O)c3cc4c(-c5ccncc5OC)cc(C5=CCCN(C(=O)CCn6ccnn6)C5)c(F)c4[nH]3)CC2)n1` [Example I-612], the IC50 was < 0.1 µM. With `CCc1ccncc1-c1cc(C2=CCC[C@@H](C(=O)O)C2)c(F)c2[nH]c(C(=O)N3CCN(c4ncc(F)cc4OC)CC3)cc12` (single isomer, unassigned) [Example I-810] the figure was > 100 µM; with `COc1ccccc1-c1cc(C2=CCCN(C(=O)CCn3ccnn3)C2)c(F)c2[nH]c(C(=O)N3CCN(Cc4ccncc4)CC3)cc12` [Example I-858], < 0.1 µM; with `CCc1cnccc1-c1cc(C2=CCCN(C(=O)CCn3ccnn3)C2)c(F)c2[nH]c(C(=O)N3CCN(c4ncc(OC)cc4OC)CC3)cc12` [Example I-484], > 100 µM. The result for `COc1cc(F)cnc1N1CCN(C(=O)c2cc3c(-c4ccc(C)c5ncccc45)cc(C4=CCCN(C(=O)CCn5ccnn5)C4)c(F)c3[nH]2)CC1` [Example I-635] reads < 0.1 µM. In the case of `COc1ccccc1-c1cc(C2=CCCN(C(=O)CCn3ccnn3)C2)c(F)c2[nH]c(C(=O)N3CCN(c4c(F)cc(F)cc4OC)CC3)cc12` [Example I-432], the IC50 is < 0.1 µM. With `CCc1ccncc1-c1cc(C2=CCCN(C(=O)C(=O)O)C2)c(F)c2[nH]c(C(=O)N3CCN(c4ncc(F)cc4OC)CC3)cc12` [Example I-790] the figure was < 0.1 µM; with `CNc1cnc(N2CCN(C(=O)c3cc4c(-c5ccccc5OC)cc(C5=CCCN(C(=O)CCn6ccnn6)C5)c(F)c4[nH]3)CC2)c(OC)c1` [Example I-353], < 0.1 µM. On to `CCc1nc(C)ccc1-c1cc(C(=O)N2Cc3cnn(CC)c3C2)c(F)c2cc(C3=CCCN(C(=O)CCn4ccnn4)C3)n(CC3CC3)c12` [Example I-549], for which the half-inhibitory concentration (IC50) is > 100 µM. With `COc1ccccc1-c1cc(C2=CCCN(C(=O)CCn3ccnn3)C2)c(F)c2[nH]c(C(=O)N3CCC(C)(O)C3)cc12` (stereo not shown) [Example I-1006], the IC50 was in the range of 0.1 to 1 µM. As for `COc1ccccc1-c1cc(C2=CCCN(C(=O)CCn3ccnn3)C2)c(F)c2[nH]c(C(=O)N3CCN(c4cnn(C)c4C#N)CC3)cc12` [Example I-1005], the IC50 was < 0.1 µM.

Take `COc1ccccc1-c1cc(C2=CCCN(C(=O)CCn3ccnn3)C2)c(F)c2[nH]c(C(=O)N3CCN(c4cc(F)c5ncccc5c4)CC3)cc12` [Example I-953]: the half-inhibitory concentration (IC50) is < 0.1 µM. With `COc1cccc(/C=C/c2cc(C3=CCCN(C(=O)CCn4ccnn4)C3)c(F)c3[nH]c(C(=O)N4CCN(c5ncc(F)cc5OC)CC4)cc23)c1` [Example I-1129] the figure was < 0.1 µM.

On to `CN1CCN(c2ccc(-c3cc(C4=CCCN(C(=O)CCn5ccnn5)C4)cc4cc(C(=O)N(C)C)oc34)cn2)CC1` [Example I-1087], for which the IC50 is < 0.1 µM.

In general, IC50 refers to the point on the concentration scale where inhibition reaches its midpoint.
